Data on one compound can be found in publication PMC7893776, “Selecting an anti-malarial clinical candidate from two potent dihydroisoquinolones” (Malaria Journal, 2021).

Values joined by “and” are separate entries in the source; they are usually repeats but may differ in a detail not shown here. Equal entries are not always repeated. Where only a bound is given, the exact number is not on record here.

One data set deals with T1, CYP3A4 (Homo sapiens, UniProt P08684).
T1 construct: purchased Cypex Ltd (Bactosomes)
As to the kind of experiment: CYP450 inhibition, CYP3A4. The data set is classed as in vitro ADME. To be noted: 10 µM, probe substrate Midazolam, replicate measurements.

Data set [1] in a line: LogD octanol/pH 7.4 buffer shake flask. The data set is classed as physicochemical. How it is done:
Octanol/pH 7.4 buffer partitioning experiments were conducted using a shake flask method, and pKa was assessed by potentiometric titration. Both methods have been described previously.

The target of another data set is T2, CYP1A2 (Homo sapiens, UniProt P05177).
T2 construct: purchased Cypex Ltd (Bactosomes)
T2 sequence (P05177 1-516): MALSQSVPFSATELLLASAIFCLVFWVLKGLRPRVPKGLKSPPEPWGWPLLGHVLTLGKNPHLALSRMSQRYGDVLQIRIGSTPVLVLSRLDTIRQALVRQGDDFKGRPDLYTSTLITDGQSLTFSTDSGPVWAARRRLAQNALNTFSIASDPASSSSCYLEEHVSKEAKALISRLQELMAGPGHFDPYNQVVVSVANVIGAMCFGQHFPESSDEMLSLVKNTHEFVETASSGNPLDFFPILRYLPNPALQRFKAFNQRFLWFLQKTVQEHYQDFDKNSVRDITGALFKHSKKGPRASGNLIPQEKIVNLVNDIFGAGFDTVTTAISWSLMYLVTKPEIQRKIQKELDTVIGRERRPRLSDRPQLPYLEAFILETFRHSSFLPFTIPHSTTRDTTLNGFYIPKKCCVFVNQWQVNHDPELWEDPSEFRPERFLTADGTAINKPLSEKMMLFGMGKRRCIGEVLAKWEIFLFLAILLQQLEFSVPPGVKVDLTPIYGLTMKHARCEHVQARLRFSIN
Put plainly: CYP450 inhibition, CYP1A2. The data set is classed as in vitro ADME. The settings on record: 10 µM, probe substrate Ethoxy-resorufin, replicate measurements.

A short description of data set [2]: Microsomal stability, mouse. The data set is classed as in vitro ADME. To be noted: mouse microsomes, 20, 4, 0.8 µM. How it is done:
(§1) The metabolic stability assay was performed by incubating compounds individually (0.8, 4, or 20 µM) with mouse, rat, dog and human liver microsomes (Fisher, 0.5 mg/mL protein concentration) at 37 °C. The metabolic reaction was initiated by the addition of a NADPH-regenerating system and quenched at various time points by the addition of acetonitrile according to a published method.
(§2) The remaining concentration of each compound was measured as a ratio of peak area to the internal standard. The log peak area ratio was plotted vs. time (h), and the slope was determined to calculate the elimination rate constant [k = (− 2.303) * slope]. If deviation from first order kinetics was evident, only the initial linear portion of the plot was used to determine the rate constate, k. The half-life (h) was calculated as t1/2 = 0.693/k. Intrinsic clearance in vitro was calculated as CLintin vitro = (1000)*(0.693/t1/2*60)/0.5, where microsomal concentration in the reaction solution was 0.5 mg/mL; 1000 and 60 are scaling factors for volume (µL) and time (min), respectively. The intrinsic in vitro clearance was scaled to the intrinsic in vivo clearance using physiology based scaling factor (PBSF): CLint in vivo= CLint in vitro *PBSF: (microsome protein/gram liver) * (gram liver/kg b.w.), with PBSF: 47 (mouse), 47(rat), 58 (dog), 32 (human); and liver weight proportions: 54.9 (mouse), 36.6 (rat), 32.9 (dog) 25.7 (human).

A short description of data set [3]: Microsomal stability, human. The data set is classed as in vitro ADME. To be noted: human microsomes, 20, 4, 0.8 µM. How it is done:
as §1, §2

The target of another data set is T3, CYP2D6 (Homo sapiens, UniProt P10635).
T3 construct: purchased Cypex Ltd (Bactosomes)
As to the kind of experiment: CYP450 inhibition, CYP2D6. The data set is classed as in vitro ADME. The settings on record: 10 µM, probe substrate Bufuralol, replicate measurements.

Data set [4] in a line: Microsomal stability, rat. The data set is classed as in vitro ADME. To be noted: rat microsomes, 20, 4, 0.8 µM. How it is done:
as §1, §2

The nature of data set [5]: Microsomal stability, dog. The data set is classed as in vitro ADME. The settings on record: dog microsomes, 20, 4, 0.8 µM. How it is done: as §1, §2
The target in another data set is T4, CYP2C9 (Homo sapiens, UniProt P11712).
T4 construct: purchased Cypex Ltd (Bactosomes)
Put plainly: CYP450 inhibition, CYP2C9. The data set is classed as in vitro ADME. To be noted: 10 µM, probe substrate Diclofenac, replicate measurements. How it is done: SJ733 was first pre-incubated with Bactosomes™ (Cypex Ltd, final P450 concentration: CYP1A1 25 pmol/mL, CYP1A2 100 pmol/mL,CYP1B1 100 pmol/mL, CYP2B6 100 pmol/mL, CYP2C8 50 pmol/mL, CYP2C9, 25 pmol/mL, CYP2C19 100 pmol/mL, CYP2D6 50 pmol/mL and CYP3A4 25 pmol/mL, 0.1 M phosphate buffer pH 7.4) at 37 °C prior to the addition of NADPH (final concentration 1 mM) to initiate the reaction with a final incubation volume of 50 μL. Incubations were also performed using control Bactosomes™ (no P450 enzymes present) to reveal any non-enzymatic degradation. Control compounds known to be metabolized specifically by each P450 isoform were included individually. Test articles and controls were incubated with each isoform for 0, 5, 15, 30, and 45 min. The reactions were stopped by transferring 20 μL of the reaction mixture to 60 μL methanol at the appropriate timepoints.
In an alternate approach SJ311 was studied using a validated cocktail probe substrate method. […] All samples were analyzed using LC MS/MS, with either positive atmospheric pressure chemical ionization (APCI) mode (SJ311) or ESI (SJ733) mode utilizing multiple reaction monitoring (MRM) scans.

T4 sequence (P11712 whole entry): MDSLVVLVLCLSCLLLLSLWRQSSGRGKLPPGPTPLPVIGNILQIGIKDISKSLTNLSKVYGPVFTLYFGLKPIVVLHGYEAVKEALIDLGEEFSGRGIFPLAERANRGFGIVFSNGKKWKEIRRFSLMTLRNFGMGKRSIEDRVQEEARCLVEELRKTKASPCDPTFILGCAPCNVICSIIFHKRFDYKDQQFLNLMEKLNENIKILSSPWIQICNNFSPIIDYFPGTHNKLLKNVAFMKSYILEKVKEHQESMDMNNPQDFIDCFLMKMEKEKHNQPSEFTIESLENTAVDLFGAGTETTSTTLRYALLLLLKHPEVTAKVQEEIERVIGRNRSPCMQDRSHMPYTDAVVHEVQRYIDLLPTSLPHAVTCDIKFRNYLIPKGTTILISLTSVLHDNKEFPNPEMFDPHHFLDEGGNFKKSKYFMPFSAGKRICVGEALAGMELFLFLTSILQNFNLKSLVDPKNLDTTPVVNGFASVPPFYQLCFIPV
T1 sequence (P08684 whole entry): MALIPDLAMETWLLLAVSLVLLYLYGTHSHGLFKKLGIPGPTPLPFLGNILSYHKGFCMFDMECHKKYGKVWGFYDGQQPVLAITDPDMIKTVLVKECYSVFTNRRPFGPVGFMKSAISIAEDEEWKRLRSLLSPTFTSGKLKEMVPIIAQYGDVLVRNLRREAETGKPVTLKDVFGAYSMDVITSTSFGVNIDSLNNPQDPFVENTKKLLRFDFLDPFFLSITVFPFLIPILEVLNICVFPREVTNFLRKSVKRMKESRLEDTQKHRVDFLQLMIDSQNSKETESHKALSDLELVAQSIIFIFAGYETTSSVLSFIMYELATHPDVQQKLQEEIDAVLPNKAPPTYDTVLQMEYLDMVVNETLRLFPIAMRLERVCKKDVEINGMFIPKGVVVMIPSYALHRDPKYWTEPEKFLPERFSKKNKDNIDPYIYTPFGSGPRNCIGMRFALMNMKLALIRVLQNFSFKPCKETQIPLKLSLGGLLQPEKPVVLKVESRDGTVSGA
T3 sequence (P10635 whole entry): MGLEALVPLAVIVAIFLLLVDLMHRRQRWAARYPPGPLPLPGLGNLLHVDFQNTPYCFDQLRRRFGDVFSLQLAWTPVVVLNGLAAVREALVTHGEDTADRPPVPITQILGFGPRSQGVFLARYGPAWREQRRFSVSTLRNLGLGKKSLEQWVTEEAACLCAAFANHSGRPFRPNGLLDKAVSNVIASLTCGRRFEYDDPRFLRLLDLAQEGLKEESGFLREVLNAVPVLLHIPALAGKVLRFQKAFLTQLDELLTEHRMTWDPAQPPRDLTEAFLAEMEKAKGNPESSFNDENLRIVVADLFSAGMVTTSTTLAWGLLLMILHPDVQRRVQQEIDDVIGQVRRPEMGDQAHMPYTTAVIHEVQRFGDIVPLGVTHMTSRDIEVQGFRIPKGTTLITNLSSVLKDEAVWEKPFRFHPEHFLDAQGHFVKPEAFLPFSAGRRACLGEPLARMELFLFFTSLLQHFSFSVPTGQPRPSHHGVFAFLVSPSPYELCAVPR

`N#Cc1cc(NC(=O)C2c3ccccc3C(=O)N(CC(F)(F)F)C2c2cn[nH]c2)ccc1F` (racemic) [(r)-SJ311]: the “inhibition of CYP3A4” value on CYP3A4 was 54% and 52%. The “LogD (7.4) Shake flask” value in data set [1] is recorded as 2.34. The “inhibition of CYP1A2” value at CYP1A2 is 5% and 0.5%. The CLint in vitro in [2], in data set [3], in [4] and in [5] was below 7 µl/min/mg protein in each case. In addition, the CLint in vivo in data set [2] (scaled up using PBSF) was below 13.5 mL/min/kg; in data set [3] (scaled up using PBSF), below 5.2 mL/min/kg; in [4] (scaled up using PBSF), below 11.7 mL/min/kg; in data set [5] (scaled up using PBSF) it was below 8.3 mL/min/kg. Also, at CYP2D6, the “inhibition of CYP2D6” value came to 11%. For the same compound, the “inhibition of CYP2C9” value against CYP2C9 is 19% and 15%.
